Data: publication PMC9960827, “Cloning and Characterization of Trypanosoma congolense and T. vivax Nucleoside Transporters Reveal the Potential of P1-Type Carriers for the Discovery of Broad-Spectrum Nucleoside-Based Therapeutics against Animal African Trypanosomiasis” (International Journal of Molecular Sciences, 2023)
Read-outs that look alike come from different tables or passages of the source. Marks after values point to notes of the source that are not given here.

How the values were obtained:
L. mexicana Cas9 = assay: Resazurin drug sensitivity assay, LmexCas9; type: cell-based, Leishmania mexicana; details: read-out: LmexCas9 EC50
Protocol: (§1) EC50 values were determined by plotting to an equation for a sigmoid curve with variable slope (GraphPad Prism 8). All values were the average of at least three independent determinations on different days.

L. mexicana SUPKO+TcoAT1 = assay: microbe, parasite or virus in culture; type: cell-based, Leishmania mexicana; details: for EC50: read-out: SUPKO+TcoAT1 EC50; for SUPKO+TcoAT1 RF (SUPKO): Resistance Factor relative to SUPKO
Protocol: as §1

L. mexicana SUPKO+TvxNT3 = assay: microbe, parasite or virus in culture; type: cell-based, Leishmania mexicana; details: for EC50: read-out: SUPKO+TvxNT3 EC50; for SUPKO+TvxNT3 RF (SUPKO): Resistance Factor relative to SUPKO
Protocol: as §1

L. mexicana SUPKO = assay: microbe, parasite or virus in culture; type: cell-based, Leishmania mexicana; details: for SUPKO RF (Cas9): Resistance Factor = EC50(SUPKO)/EC50(Cas9)
Protocol: as §1

T. congolense IL3000 [1] = assay: Alamar Blue (resazurin) assay, T. congolense IL3000; type: cell-based, Trypanosoma congolense; details: read-out: T. congolense IL3000 EC50
Protocol: as §1

T. congolense 6C3 [2] = assay: microbe, parasite or virus in culture; type: cell-based, Trypanosoma congolense; details: for EC50: diminazene resistant strain, resazurin, read-out: T. congolense 6C3 EC50; for T. congolense 6C3 RF: resistance factor = EC50 (test strain)/EC50(control strain)
Protocol: as §1

T.b.b. B48 = assay: Alamar Blue (resazurin) assay, T. b. brucei B48; type: cell-based, Trypanosoma brucei brucei; details: read-out: T.b.b. B48 EC50
Protocol: as §1

T. evansi = assay: Alamar Blue (resazurin) assay, T. evansi; type: cell-based, Trypanosoma evansi; details: read-out: T. evansi EC50
Protocol: as §1

T. equiperdum = assay: Alamar Blue (resazurin) assay, T. equiperdum; type: cell-based, Trypanosoma equiperdum; details: read-out: T. equiperdum EC50
Protocol: as §1

[3] = Resazurin toxicity assay on human embryonic kidney cells; type: cell-based; details: human
Protocol: as §1

[4] = tested on: human embryonic kidney (HEK) cells; assay: as above; type: cell-based; details: for SI T. congolense: selectivity index = EC50 (HEK cells)/EC50 (T. congolense); for SI T. equiperdum: selectivity index = EC50 (HEK cells)/EC50 (T. equiperdum); for SI T. evansi: selectivity index = EC50 (HEK cells)/EC50 (T. evansi)
Protocol: as §1

T. vivax [5] = tested on: T. vivax; design: method as in Mabille et al. [69]; details: added for comparison only; ref Mabille et al. [69]; cited from earlier work
T. vivax [6] = assay: T. vivax EC50 (from Mabille et al.); type: cell-based, Trypanosoma vivax; details: from Table 8 data
[7] = molecular target: T. congolense adenosine transporter; assay: [3H]-adenosine uptake and its inhibition in T. congolense IL3000 bloodstream forms; type: cell-based, Trypanosoma congolense; details: for Ki: 0.05 µM [3H]-adenosine, 30 s, IC50 converted to Ki, read-out: Ki on the transport of [3H]-adenosine; for ΔG0, Gibbs free energy of interaction: calculated from Km or Ki
Protocol: (§2) Uptake assays using radiolabeled trypanocides and/or nucleosides were carried out as described previously. Briefly, parasite cultures were harvested, washed twice in assay buffer (33 mM HEPES, 98 mM NaCl, 4.6 mM KCl, 0.5 mM CaCl2, 0.07 mM MgSO4, 5.8 mM NaH3PO4, 0.03 mM MgCl2, 23 mM NaHCO3, 14 mM D-glucose, pH 7.3), then resuspended and adjusted to a density of 1 × 10^8 cells/mL in assay buffer. The radiolabeled permeant in the presence or absence of different concentrations of potential inhibitors reconstituted in 100 μL assay buffer was deposited on top of 250 μL oil mix in microcentrifuge tubes; 1 × 10^7 parasites in 100 μL assay buffer were added to the tube and incubated for a pre-determined interval. The reaction was stopped by the addition of 1 mL of a high concentration of ice-cold unlabeled substrate in assay buffer (‘stop solution’) and centrifugation, or by immediate centrifugation at […] as appropriate. The microcentrifuge tubes were flash-frozen, and the bottom of each tube containing the cell pellet was cut off and transferred to a scintillation vial. Cell pellets were lysed in 2% SDS, after which scintillation fluid (Scintlogic U, Lablogic) was added, followed by overnight incubation in the dark. Scintillation was measured in a 300SL (Hidex) scintillation counter (Hidex). All the assays were conducted in triplicate and analysis was carried out using Microsoft Excel and GraphPad Prism. All kinetic parameters were obtained on at least 3 separate occasions.
(§3) The dose-dependent uptake assay allowed for the affinity of nucleoside analogs to different nucleoside transporters to be determined by measuring the extent to which the analogs compete with and inhibit the uptake of radiolabel adenosine. This allowed for the determination of biochemical parameters such as Km and Vmax through the application of the Michaelis–Menten equation V0 = Vmax([substrate]/([substrate] + Km)). The 50% Inhibitory Concentration (IC50) of the purines and pyrimidines and their analogs was determined from non-linear regression to sigmoid curves with variable slope (Prism 8), and the IC50 of the inhibitor and the Km of the labeled permeant were then used to calculate the inhibition constant (Ki) of the analogs through the Cheng–Prusoff equation: Ki = IC50/(1 + (L/Km)), where L denotes the radiolabel concentration. The calculated Ki was in turn used to determine the Gibbs free energy (ΔG^0) of the inhibitor–transporter interaction using the equation: ΔG^0 = -RTln(Ki), where R represents the gas constant and T symbolizes the absolute temperature in Kelvin [104].

TcoAT1 = type: cell-based, Trypanosoma congolense; details: for Ki: 0.05 µM [3H]-adenosine, 10 s, IC50 converted to Ki, read-out: Ki on the transport of [3H]-adenosine
Text: The information for the T. congolense adenosine transporter (TcoAT1) and four putative T. vivax nucleoside transporters was obtained in the TritrypDB (tritrypdb.org/tritrypdb) genome database. Primers were designed to flank each gene upstream of the 5′ end (forward) and downstream of the 3′ end (reverse) as described (primer sequences in Supplementary Table S2). Following amplification from the genomic DNA of T. congolense or T. vivax, DNA for each extracted gene was ligated into the pNUS-HcN expression vector doubly digested with NdeI using the NEBuilder kit according to the manufacturer’s instructions (New England Biolabs). Construct was transformed into competent E. coli cells, and ligation was confirmed by restriction enzyme digestion of isolated plasmid DNA followed by Sanger sequencing (Source BioScience, Nottingham, UK). Confirmed plasmids were then transfected into L. mexicana cell line in which both NT1 and NT2 were doubly knocked out (SUPKO) and derived from L. mexicana Cas9 [64] as described. Clones grown in medium containing 50 μg/mL neomycin (G418) were collected for further confirmation by PCR with genomic DNA using a forward primer of the transporter gene and a reverse primer of the plasmid.
as §2, §3

T. congolense IL3000 [8] = tested on: T. congolense IL3000; design: method as in Hulpia et al. [38]; details: values marked *; ref Hulpia et al. [38]; cited from earlier work
T. congolense 6C3 [9] = tested on: T. congolense 6C3; design: method as in Hulpia et al. [38]; details: values marked *; ref Hulpia et al. [38]; cited from earlier work
[10] = Leishmania mexicana, read-out: SUPKO EC50, resazurin, promastigotes
[11] = resazurin, promastigotes, read-out: SUPKO EC50
[12] = multidrug-resistant strain, resazurin

Structure (SMILES)	EC50 (L. mexicana Cas9; Leishmania mexicana) [nM]	EC50 (L. mexicana SUPKO+TcoAT1; Leishmania mexicana) [nM]	SUPKO+TcoAT1 RF (SUPKO) (L. mexicana SUPKO+TcoAT1)	EC50 (L. mexicana SUPKO+TvxNT3; Leishmania mexicana) [nM]	SUPKO+TvxNT3 RF (SUPKO) (L. mexicana SUPKO+TvxNT3)	EC50 (L. mexicana SUPKO; [10]) [nM]	SUPKO RF (Cas9) (L. mexicana SUPKO)	T. congolense 6C3 RF (T. congolense 6C3 [2])	SI T. congolense [4]	SI T. equiperdum [4]	SI T. evansi [4]	EC50 (T. vivax [5]) [nM]	EC50 (L. mexicana Cas9; resazurin, promastigotes) [nM]	EC50 (L. mexicana SUPKO+TcoAT1; resazurin, promastigotes) [nM]	EC50 (L. mexicana SUPKO+TvxNT3; resazurin, promastigotes) [nM]	EC50 (L. mexicana SUPKO; [11]) [nM]	EC50 (T. congolense IL3000 [1]; BSF, resazurin) [nM]	EC50 (T. congolense 6C3 [2]) [nM]	EC50 (T. evansi; resazurin) [nM]	EC50 (T. equiperdum; resazurin) [nM]	further results
Nc1ncnc2c1c(F)cn2[C@@H]1O[C@H](CO)[C@@H](O)[C@H]1O [FH3167, 7-deaza-7-fluoroadenosine]	96 ± 9	7500 ± 900	8.48	57200 ± 6800	1.1	63400 ± 5500	660	1.06	1.1	15	2.7	38 ± 6	–	–	–	–	–	–	–	–	EC50 (T. congolense IL3000 [1]; Trypanosoma congolense, BSF, resazurin): 450 ± 620 nM; EC50 (T. congolense 6C3 [2]; Trypanosoma congolense): 480 ± 100 nM; EC50 (T.b.b. B48; Trypanosoma brucei): 160 ± 30 nM; EC50 (T. evansi; Trypanosoma evansi, resazurin): 180 ± 23 nM; EC50 (T. equiperdum; Trypanosoma equiperdum, resazurin): 32 ± 7 nM; EC50 [3]: 490 ± 50 nM
Nc1ncnc2c1c(C(F)(F)F)cn2[C@@H]1O[C@H](CO)[C@@H](O)[C@H]1O [FH6367, 7-trifluoromethyl-7-deazaadenosine]	26100 ± 6400	3790 ± 340	>26.4	7400 ± 1400	>13.5	> 100000	>3.83	0.50	0.3	2.6	0.7	820 ± 90	–	–	–	–	–	–	–	–	EC50 (T. congolense IL3000 [1]; Trypanosoma congolense): 1800 ± 440 nM; EC50 (T. congolense 6C3 [2]; Trypanosoma congolense): 890 ± 170 nM; EC50 (T.b.b. B48; Trypanosoma brucei): 900 ± 130 nM; EC50 (T. evansi; Trypanosoma evansi): 680 ± 110 nM; EC50 (T. equiperdum; Trypanosoma equiperdum): 190 ± 30 nM; EC50 [3]: 490 ± 10 nM
C#Cc1cn([C@@H]2O[C@H](CO)C[C@H]2O)c2ncnc(N)c12 [FH8505]	–	–	>1.1	–	>1.25	–	>1.08	0.46 ^a	68	446	151	160 ± 10	92700 ± 4300	89900 ± 12500	80000 ± 7700	> 100000	17 ± 2	8 ± 2	7.8 ± 2	2.6 ± 0.8	fold higher EC50 against T. vivax compared to T. congolense (T. vivax [6]): 10–165 fold; EC50 (T.b.b. B48; [12]): 31 ± 4 nM; EC50 [4]: 1170 ± 60 nM
Nc1ncnc2c1c(F)cn2[C@@H]1O[C@H](CO)C[C@H]1O [FH8517]	–	–	1.64	–	1.06	–	3.22	0.60	330	3310	431	500 ± 10	3090 ± 40	6100 ± 700	9420 ± 1410	9960 ± 2040	5.2 ± 0.3	3.1 ± 0.3	4 ± 0.6	0.52 ± 0.11	Ki [7]: 98100 ± 2300 nM; ΔG0, Gibbs free energy of interaction [7]: -5.47 kcal/mol; Ki (TcoAT1): 229000 ± 15000 nM; ΔG0 (TcoAT1; Gibbs free energy of binding, from Km or Ki): -4.97 kcal/mol; EC50 (T.b.b. B48; [12]): 13 ± 2 nM; EC50 [4]: 1710 ± 110 nM
CC(C)Oc1ncnc2c1c(Cl)cn2[C@@H]1O[C@H](CO)[C@@H](O)[C@H]1O [FH9531]	–	–	–	–	–	–	–	0.80	–	–	–	120 ± 10	> 100000	> 100000	> 100000	> 100000	–	–	–	–	EC50 (T. congolense IL3000 [8]): 4040 ± 360 nM; EC50 (T. congolense 6C3 [9]): 3230 ± 360 nM
C=Cc1cn([C@@H]2O[C@H](CO)C[C@H]2O)c2ncnc(N)c12 [FH10659]	–	–	–	–	–	–	–	0.70	–	–	–	1570 ± 430	> 100000	> 100000	> 100000	> 100000	56 ± 4	40 ± 3	38 ± 1.5	11 ± 1	Ki [7]: 28500 ± 8100 nM; ΔG0, Gibbs free energy of interaction [7]: -6.19 kcal/mol; Ki (TcoAT1): 59300 ± 4300 nM; fold higher EC50 against T. vivax compared to T. congolense (T. vivax [6]): 10–165 fold
